Results as given in patent US9493455B2, “Azaindole derivatives as inhibitors of protein kinases” (ORIBASE PHARMA, priority 2012, dated 2016).

Tests used:
Experiment in all cases: In vitro cell proliferation assay (MTT)
Format in all cases: cell-based
[1] = tested on: HUVEC; conditions: Homo sapiens, 72 h
Procedure: Cancer cell lines (5×10^3 cells per well) or HUVEC (1×10^4 cells per well) or HRMEC (1×10^4 cells per well) were distributed in 96-well plates and incubating in duplicate with escalating concentrations (10 nM to 3 μM) of compounds for 72 hr. Cell proliferation was measured using MTT (3 [4,5-dimethylthiazol-2-yl]-2,5-diphenyltetrazolium bromide).

[2] = tested on: HuCCT1; conditions: Homo sapiens, HuCCT-1, 72 h
Procedure, shortened: (§1)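 Growth is assessed with the tetrazolium dye MTT following a 72 hr incubation with compound spanning 10 nM up to 3 μM, each dose tested twice on 5×10^3 plated cells per well.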

[3] = tested on: HRMEC; conditions: 72 h
Procedure, shortened: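 Cells were seeded at 5×10^3 per well and exposed in duplicate to escalating compound concentrations from 10 nM to 3 μM for 72 hr. Proliferation was then measured by MTT reduction.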

[4] = tested on: HuH7; conditions: Homo sapiens, Huh-7, 72 h
Procedure, shortened: as §1

[5] = tested on: HuH6 Clone 5; conditions: HUH-6-clone5, 72 h
Procedure, shortened: as §1

[6] = tested on: HT29; conditions: Homo sapiens, HT-29, 72 h
Procedure, shortened: as §1

[7] = tested on: H1975; conditions: Homo sapiens, NCI-H1975, 72 h
Procedure, shortened: as §1

[8] = tested on: HeLa; conditions: Homo sapiens, 72 h
Procedure, shortened: as §1

[9] = tested on: BaF3 G250E; conditions: Mus musculus, BaF3, 72 h
Procedure, shortened: as §1

[10] = tested on: BxPC-3; conditions: Homo sapiens, BXPC-3, 72 h
Procedure, shortened: as §1

[11] = tested on: BaF3 WT; conditions: Mus musculus, BaF3, 72 h
Procedure, shortened: as §1

[12] = tested on: A549; conditions: Homo sapiens, A549, 72 h
Procedure, shortened: as §1

[13] = tested on: BaF3 G250A; conditions: Mus musculus, BaF3, 72 h
Procedure, shortened: as §1

[14] = tested on: BaF3 E255K + M351T; conditions: Mus musculus, BaF3, 72 h
Procedure, shortened: as §1

[15] = tested on: PC-3; conditions: Homo sapiens, PC-3, 72 h
Procedure, shortened: as §1

[16] = tested on: Caki-2; conditions: Homo sapiens, CAKI-2, 72 h
Procedure, shortened: as §1

[17] = tested on: MDA-MB-231; conditions: Homo sapiens, MDA-MB-231, 72 h
Procedure, shortened: as §1

[18] = tested on: HepG2; conditions: Homo sapiens, HepG2, 72 h
Procedure, shortened: as §1

[19] = tested on: BaF3 T315I; conditions: Mus musculus, BaF3, 72 h
Procedure, shortened: as §1

- EC50 [4]: ≤ 100 nM
- EC50 [5]: ≥ 1000 nM
- EC50 [6]: 100 to 1000 nM
- EC50 [7]: 100 to 1000 nM
- EC50 [8]: 100 to 1000 nM
- EC50 [9]: ≤ 100 nM
- EC50 [10]: ≤ 100 nM
- EC50 [11]: ≤ 100 nM
- EC50 [12]: ≤ 100 nM
- EC50 [13]: ≤ 100 nM
- EC50 [14]: ≤ 100 nM
- EC50 [15]: 100 to 1000 nM
- EC50 [17]: ≤ 100 nM
- EC50 [18]: ≤ 100 nM
- EC50 [19]: ≤ 100 nM
SMILES: COC(=O)c1cc2cc(NCc3cc(NC(=O)c4ccc(CN5CCN(C)CC5)c(C(F)(F)F)c4)ccc3C)cnc2[nH]1 [OR0512]
- EC50 [1]: ≤ 100 nM
- EC50 [2]: 100 to 1000 nM
- EC50 [3]: ≤ 100 nM
- EC50 [16]: ≤ 100 nM
